Laboratory results from patent US11524966B1 (Valo Early Discovery, Inc., priority 2017, dated 2022).

Biological target: T1, USP28 (USP28-5(1-1077)-TEV-6*His; LifeSensors) (Homo sapiens, UniProt Q96RU2)
T1 construct: construct USP28 (USP28-5(1-1077)-TEV-6*His; LifeSensors); TEV cleavage site (C); 6xHis (C); purchased LifeSensors
T1 sequence (Q96RU2 1-1077): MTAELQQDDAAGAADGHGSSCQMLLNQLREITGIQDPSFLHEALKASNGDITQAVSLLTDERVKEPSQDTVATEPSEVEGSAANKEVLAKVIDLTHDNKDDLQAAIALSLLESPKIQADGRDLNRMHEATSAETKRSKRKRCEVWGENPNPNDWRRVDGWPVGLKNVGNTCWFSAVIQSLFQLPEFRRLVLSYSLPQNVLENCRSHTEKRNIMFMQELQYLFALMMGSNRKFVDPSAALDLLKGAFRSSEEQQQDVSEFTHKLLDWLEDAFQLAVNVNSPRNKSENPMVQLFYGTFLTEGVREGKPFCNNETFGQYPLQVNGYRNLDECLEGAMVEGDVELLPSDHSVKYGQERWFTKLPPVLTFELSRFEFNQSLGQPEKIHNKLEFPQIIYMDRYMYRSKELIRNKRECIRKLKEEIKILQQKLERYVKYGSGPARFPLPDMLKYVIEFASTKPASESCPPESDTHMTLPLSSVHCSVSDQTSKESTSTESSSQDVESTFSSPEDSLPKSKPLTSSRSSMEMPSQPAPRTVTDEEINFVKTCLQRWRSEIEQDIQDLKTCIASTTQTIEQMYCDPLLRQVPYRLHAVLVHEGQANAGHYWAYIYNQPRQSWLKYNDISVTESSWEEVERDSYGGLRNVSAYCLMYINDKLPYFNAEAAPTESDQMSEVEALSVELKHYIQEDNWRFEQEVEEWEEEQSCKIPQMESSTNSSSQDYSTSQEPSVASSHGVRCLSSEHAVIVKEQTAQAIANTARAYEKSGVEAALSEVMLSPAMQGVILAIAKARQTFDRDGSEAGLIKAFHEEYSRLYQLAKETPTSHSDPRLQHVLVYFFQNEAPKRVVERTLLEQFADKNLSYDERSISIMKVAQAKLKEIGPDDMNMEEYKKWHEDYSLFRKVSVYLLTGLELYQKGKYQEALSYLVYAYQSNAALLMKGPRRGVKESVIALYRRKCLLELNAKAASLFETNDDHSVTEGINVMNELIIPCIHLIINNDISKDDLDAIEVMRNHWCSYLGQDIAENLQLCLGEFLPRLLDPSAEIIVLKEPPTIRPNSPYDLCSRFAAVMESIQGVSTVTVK
Test: Ubiquitin-Rhodamine 110 Assay for USP28 Activity, Example A-1(b)
Type: biochemical
Conditions: Ub-Rh110 assay, Example A-1(b)
Summary of the method: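 Single-point screening used 10 μM compound with 90 min room-temperature incubation; follow-up dose-responses (25 μM top, 3-fold) used 75 pM USP28 1-1077 construct, 30 min compound preincubation, 25 nM Ub-Rh110, 20 min reaction, citric acid quench. Rh110 fluorescence normalised to no-enzyme and DMSO controls; IC50 from 4-parameter logistic fit.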

SMILES | USP28 A-1(b) IC50 range
CCn1ccc2cc(C(=O)N[C@H]3COc4cc(N5CC6CNCC(C5)C6(F)F)ccc4C3)cnc21 [Example 2-30, N-((3R)-7-(9,9-difluoro-3,7-diazabicyclo[3.3.1]nonan-3-yl)chroman-3-yl)-1-ethyl-1H-pyrrolo[2,3-b]pyridine-5-carboxamide] | ++++ (0.001-0.05 μM)
Cc1nc2sc(C(=O)N[C@H]3COc4cc(N5CC6CCC(C5)N6)ccc4C3)c(N)c2s1 [Example 1-23, N-((3R)-7-(3,8-diazabicyclo[3.2.1]octan-3-yl)chroman-3-yl)-6-amino-2-methylthieno[2,3-d]thiazole-5-carboxamide] | ++ (0.2-2 μM)
Nc1c(C(=O)N[C@@H]2COc3cc(N4CC5CCC(C4)N5)ccc3C2)sc2ncc(F)cc12 (single isomer, unassigned) [Example 1-18] | + (>2 μM)
Cc1ccc2c(N)c(C(=O)N[C@@H]3COc4cc(N5CC6CCC(C5)N6)ccc4C3)sc2n1 (single isomer, unassigned) [Example 1-4] | ++ (0.2-2 μM)
Cc1cnc2c(N)c(C(=O)N[C@H]3COc4cc(N5CCNCC5)ccc4C3)sc2n1 (single isomer, unassigned) [Example 1-21] | ++ (0.2-2 μM)
Cc1ccc2c(N)c(C(=O)N[C@H]3COc4cc(N5CCNCC5)c(OC(F)(F)F)cc4C3)sc2n1 (single isomer, unassigned) [Example 1-31] | + (>2 μM)
Cc1cnc2c(N)c(C(=O)N[C@H]3COc4cc(N5CC6CNCC(C5)O6)ccc4C3)sc2n1 [Example 2-13, N-((3R)-7-(9-oxa-3,7-diazabicyclo[3.3.1]nonan-3-yl)chroman-3-yl)-7-amino-3-methylthieno[2,3-b]pyrazine-6-carboxamide] | ++ (0.2-2 μM)
Cc1nc2sc(C(=O)N[C@H]3COc4cc(N5CCNCC5)cc(F)c4C3)c(N)c2s1 (single isomer, unassigned) [Example 1-37] | + (>2 μM)
Cc1nc2sc(C(=O)N[C@@H]3COc4cc(N5CC6CCC(C5)N6)ccc4C3)c(N)c2s1 [Example 1-24, N-((3S)-7-(3,8-diazabicyclo[3.2.1]octan-3-yl)chroman-3-yl)-6-amino-2-methylthieno[2,3-d]thiazole-5-carboxamide] | + (>2 μM)
Cc1cnc2c(N)c(C(=O)N[C@@H]3CCc4cc(N5CCNCC5)c(C)cc4C3)sc2n1 (single isomer, unassigned) [Example 2-35] | + (>2 μM)
Cc1ccc2c(N)c(C(=O)N[C@H]3COc4cc(N5CCN[C@H](C)C5)ccc4C3)sc2n1 [Example 2-9, 3-amino-6-methyl-N-((R)-7-((R)-3-methylpiperazin-1-yl)chroman-3-yl)thieno[2,3-b]pyridine-2-carboxamide] | ++ (0.2-2 μM)
O=C(N[C@H]1COc2cc(N3CC4CCC(C3)N4)ccc2C1)c1cnc2c(c1)C1(CCN2)CC1 [Example 2-24, N-((3R)-7-(3,8-diazabicyclo[3.2.1]octan-3-yl)chroman-3-yl)-2′,3′-dihydro-1′H-spiro[cyclopropane-1,4′-[1,8]naphthyridine]-6′-carboxamide] | + (>2 μM)
Cc1ccc2c(N)c(C(=O)N[C@@H]3COc4c(ccc(N5CCNCC5)c4F)C3)sc2n1 [Example 1-34, (S)-3-amino-N-(8-fluoro-7-(piperazin-1-yl)chroman-3-yl)-6-methylthieno[2,3-b]pyridine-2-carboxamide] | + (>2 μM)
O=C(N[C@H]1COc2cc(N3CC4CCC(C3)N4)ccc2C1)c1ccc(NCc2ccccc2)nc1 [Example 2-25, N-((3R)-7-(3,8-diazabicyclo[3.2.1]octan-3-yl)chroman-3-yl)-6-(benzylamino)nicotinamide] | ++ (0.2-2 μM)
Cc1ccc2c(N)c(C(=O)N[C@@H]3COc4cc(N5CCNCC5)c(OC(F)(F)F)cc4C3)sc2n1 (single isomer, unassigned) [Example 1-32] | ++ (0.2-2 μM)
Cc1cnc2c(N)c(C(=O)N[C@@H]3COc4cc(N5CCNCC5)ccc4C3)sc2n1 (single isomer, unassigned) [Example 1-22] | + (>2 μM)
Cc1ccc2c(N)c(C(=O)N[C@@H]3COc4cc(N5CCN[C@H](C)[C@H]5C)ccc4C3)sc2n1 (single isomer, unassigned) [Example 1-12] | ++++ (0.001-0.05 μM)
Cc1ccc2c(N)c(C(=O)N[C@@H]3COc4cc(N5CCNCC5)ccc4C3)sc2n1 (single isomer, unassigned) [Example 1-2] | + (>2 μM)
Cc1ccc2c(N)c(C(=O)N[C@H]3COc4cc(N5CCCC56CNC6)ccc4C3)sc2n1 [Example 2-7, (R)-N-(7-(2,5-diazaspiro[3.4]octan-5-yl)chroman-3-yl)-3-amino-6-methylthieno[2,3-b]pyridine-2-carboxamide] | +++ (0.05-0.2 μM)
